We go through 13 molecules from ChEMBL document CHEMBL1201862, “PubChem BioAssay data set” (2004).

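In this assay, cells in 96-well plates receive the compound at five concentrations for 48 hours. Endpoints are linearly interpolated between the surrounding concentrations. At the GI50, growth is halved.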 Calls of active or inactive are those of the source. Cut-off read from the data, not from the text of the source: active = GI50 up to about 1.1 µM and inactive = higher.

Test systems include NCI-H460; DLD-1; NCI-H23; 786-0; KM12; SK-OV-3; NCI-H226; CCRF-CEM; UACC-257; EKVX; COLO 205; LOX IMVI; SF-268; OVCAR-5; ACHN; CAKI-1.
Common to all, as to experiment: inhibition of tumour cell growth, NCI panel, 48 h

Consider `NC(=S)Nc1nnc(-c2ccc(-c3nnc(NC(N)=S)o3)cc2)o1`, for which the GI50 with NCI-H460, in the assay with DLD-1, in the assay on NCI-H23, in the assay with 786-0, in the assay on KM12 and with SK-OV-3 was > 100 µM (inactive) each time. For the same molecule, the GI50 in the assay with NCI-H226, with CCRF-CEM, in the assay on UACC-257, in the assay on EKVX, with COLO 205 and with LOX IMVI was > 100 µM (inactive) throughout. For the same molecule, the GI50 with SF-268, in the assay on OVCAR-5, in the assay with ACHN and with CAKI-1 was > 100 µM (inactive) in each case.

Turning to `N=C(N)SCCc1cn2ccccc2n1`, the GI50 in the assay with NCI-H460 was > 100 µM (inactive); in the assay with DLD-1, 7.03 µM (inactive); in the assay with NCI-H23, > 100 µM (inactive); in the assay on 786-0 it was > 100 µM (inactive); with KM12, > 100 µM (inactive); in the assay on NCI-H226, > 100 µM (inactive). The GI50 in the assay with CCRF-CEM, in the assay on UACC-257, with EKVX, in the assay with COLO 205, with LOX IMVI and in the assay on SF-268 was > 100 µM (inactive) in each case. For the same molecule, the GI50 in the assay with OVCAR-5, in the assay on ACHN and in the assay on CAKI-1 was > 100 µM (inactive) each time.

As for `Cc1cc2c(cc1C)[n+]([O-])c(C(=O)/C=C/c1ccccc1Cl)c(C)[n+]2[O-]`, the GI50 with NCI-H460 is 26.2 µM (inactive); in the assay on DLD-1, 19.5 µM (inactive); with NCI-H23, 19.3 µM (inactive); in the assay on 786-0, 16 µM (inactive); in the assay with KM12 it was 31.8 µM (inactive); with SK-OV-3, 36 µM (inactive). The GI50 is > 100 µM (inactive) in the assay on NCI-H226; 37.2 µM (inactive) with CCRF-CEM; 23 µM (inactive) in the assay with UACC-257; 49.2 µM (inactive) in the assay on EKVX; 20.7 µM (inactive) in the assay on COLO 205; 31 µM (inactive) with LOX IMVI. The GI50 in the assay on SF-268 was 27.9 µM (inactive); with OVCAR-5, 34.4 µM (inactive); with ACHN, 24.5 µM (inactive); with CAKI-1, 21.1 µM (inactive).

Consider `CN1C(=O)CCC1(O)C1C=CC=CC1` (configuration not stated), for which the GI50 in the assay on NCI-H460, in the assay on DLD-1, with NCI-H23, in the assay on 786-0, in the assay on KM12 and in the assay with SK-OV-3 was > 100 µM (inactive) each time. Besides, the GI50 in the assay on NCI-H226, in the assay on CCRF-CEM, with UACC-257, in the assay on COLO 205, in the assay with LOX IMVI and in the assay with SF-268 was > 100 µM (inactive) in each case. The GI50 in the assay on OVCAR-5, in the assay with ACHN and in the assay on CAKI-1 was > 100 µM (inactive) in each case.

On to `Cc1ccc(NC(=O)CCC(=O)C(C#N)c2ccccc2)cc1C` (configuration not stated), for which the GI50 in the assay on NCI-H460, in the assay on DLD-1, in the assay with NCI-H23, in the assay with 786-0, with KM12 and in the assay with SK-OV-3 was > 100 µM (inactive) throughout. The GI50 with NCI-H226, in the assay on CCRF-CEM, in the assay on UACC-257, in the assay on EKVX, in the assay with COLO 205 and in the assay on LOX IMVI was > 100 µM (inactive) throughout. Further, the GI50 in the assay on SF-268, with OVCAR-5, in the assay on ACHN and in the assay on CAKI-1 was > 100 µM (inactive) in each case.

For `CC(OC1CC(=O)CC2C(=O)C=CC(=O)C12)c1ccccc1` (configuration not stated), the GI50 in the assay on NCI-H460 was > 42.9 µM (inactive); with DLD-1 it was 12.9 µM (inactive); with NCI-H23, 18.1 µM (inactive); in the assay with 786-0, 13.9 µM (inactive); in the assay on KM12, 16.6 µM (inactive); in the assay with SK-OV-3, > 42.2 µM (inactive). In addition, the GI50 in the assay with NCI-H226 is 20 µM (inactive); in the assay with CCRF-CEM it was 2.67 µM (inactive); with UACC-257, 19.1 µM (inactive); with EKVX, 16.2 µM (inactive); in the assay with COLO 205 it was 16.9 µM (inactive); in the assay on LOX IMVI it was 17.2 µM (inactive). Also, the GI50 is 21.2 µM (inactive) in the assay with SF-268, 17.6 µM (inactive) with OVCAR-5, 11.2 µM (inactive) with ACHN and 16.9 µM (inactive) with CAKI-1.

Regarding `Sc1nnc(COc2ccc(Cl)cc2Cl)[nH]1`, the GI50 in the assay on NCI-H460, in the assay on DLD-1, in the assay with NCI-H23, in the assay on 786-0, with NCI-H226 and with CCRF-CEM was > 100 µM (inactive) throughout. Besides, the GI50 in the assay with UACC-257, in the assay on EKVX, in the assay with LOX IMVI, in the assay with SF-268, in the assay on OVCAR-5 and with ACHN was > 100 µM (inactive) in each case. The GI50 in the assay on CAKI-1 is > 100 µM (inactive).

`COC(=O)C1[C@H](c2ccc3c(c2)OCO3)OC(=O)[C@]1(C(=O)OC)C(=O)c1ccc(OC)c(OC)c1` (some centres not stated): the GI50 was 38.7 µM (inactive) in the assay on NCI-H460; 17.4 µM (inactive) with DLD-1; 29.3 µM (inactive) in the assay with NCI-H23; > 100 µM (inactive) in the assay with 786-0; 41.3 µM (inactive) with KM12; > 100 µM (inactive) in the assay with SK-OV-3. Besides, the GI50 is > 100 µM (inactive) with NCI-H226; 43.3 µM (inactive) in the assay on CCRF-CEM; 40.2 µM (inactive) in the assay on UACC-257; > 100 µM (inactive) with EKVX; 42.7 µM (inactive) in the assay on COLO 205; 18.8 µM (inactive) in the assay with LOX IMVI. Moreover, the GI50 is 56.8 µM (inactive) in the assay with OVCAR-5, 60.3 µM (inactive) in the assay on ACHN and > 100 µM (inactive) in the assay on CAKI-1.

On to `O=C(CCN1CCN(c2cccc(Cl)c2)CC1)N1CCc2c([nH]c3ccccc23)C1c1cccnc1` (configuration not stated), for which the GI50 is 4.05 µM (inactive) in the assay with NCI-H460; 5.32 µM (inactive) in the assay on DLD-1; 7.89 µM (inactive) in the assay with NCI-H23; 4.89 µM (inactive) with 786-0; 3.05 µM (inactive) in the assay with KM12; 6.59 µM (inactive) in the assay with SK-OV-3. Also, the GI50 is 18.6 µM (inactive) in the assay with NCI-H226; 5.56 µM (inactive) in the assay with CCRF-CEM; 2.81 µM (inactive) in the assay on UACC-257; 8.73 µM (inactive) in the assay with EKVX; 3.66 µM (inactive) in the assay with COLO 205; 3.52 µM (inactive) in the assay with LOX IMVI. Also, the results for the GI50 in the assay with OVCAR-5, in the assay on ACHN and in the assay on CAKI-1 were 4.72 µM (inactive), 4.78 µM (inactive) and 3.8 µM (inactive), respectively.

Consider `CC(=O)Nc1ccc(-c2nnc(SCC(=O)Nc3cccc([N+](=O)[O-])c3)o2)cc1`, for which the GI50 in the assay with NCI-H460 was 14.5 µM (inactive); in the assay on DLD-1, 12.8 µM (inactive); with NCI-H23, 5.13 µM (inactive); in the assay on 786-0, 17.6 µM (inactive); in the assay with KM12 it was 17.3 µM (inactive); in the assay with SK-OV-3 it was 11.1 µM (inactive). The GI50 was 10.8 µM (inactive) in the assay on NCI-H226; 9.1 µM (inactive) in the assay on CCRF-CEM; 17.3 µM (inactive) with UACC-257; 19 µM (inactive) in the assay on COLO 205; 8.77 µM (inactive) in the assay on LOX IMVI; 16.1 µM (inactive) in the assay on SF-268. Moreover, the values for the GI50 with OVCAR-5, with ACHN and with CAKI-1 were 23.9 µM (inactive), 15.4 µM (inactive) and 13.7 µM (inactive), respectively.

As for `O=S1(=O)OCCOS(=O)(=O)C1Br`, the GI50 in the assay on DLD-1 was > 100 µM (inactive); in the assay with NCI-H23 it was > 100 µM (inactive); in the assay on 786-0 it was > 100 µM (inactive); in the assay with KM12, > 100 µM (inactive); with SK-OV-3 it was > 100 µM (inactive); in the assay on NCI-H226, < 0.01 µM (active). Moreover, the GI50 in the assay on CCRF-CEM, with UACC-257, in the assay with COLO 205, in the assay with SF-268 and in the assay with CAKI-1 was > 100 µM (inactive) in each case.

In the case of `COc1ccc(OC)c(/C=C(/C#N)c2ccccc2)c1`, the GI50 with NCI-H460 is 15.8 µM (inactive); in the assay with DLD-1 it was 28.7 µM (inactive); in the assay with NCI-H23 it was 23.5 µM (inactive); with 786-0, 19 µM (inactive); in the assay with KM12, 10 µM (inactive); in the assay with SK-OV-3, 50 µM (inactive). In addition, the GI50 in the assay with NCI-H226 is 26.9 µM (inactive); with CCRF-CEM it was 17.5 µM (inactive); in the assay on EKVX, 30.6 µM (inactive); in the assay with COLO 205 it was 20.5 µM (inactive); in the assay with LOX IMVI it was 16.1 µM (inactive); in the assay with SF-268 it was 34 µM (inactive). Also, the GI50 in the assay on OVCAR-5 is 56 µM (inactive); in the assay on ACHN, 49 µM (inactive); in the assay on CAKI-1, 35.1 µM (inactive).

With `c1ccc2c(c1)[nH]c1c2nc2ncccn21`, the GI50 in the assay on NCI-H460, with DLD-1, with NCI-H23, with 786-0, in the assay with KM12 and in the assay with SK-OV-3 was > 100 µM (inactive) in each case. Besides, the GI50 with NCI-H226, with CCRF-CEM, with UACC-257, with EKVX, in the assay with SF-268 and with OVCAR-5 was > 100 µM (inactive) throughout. Also, the GI50 in the assay with ACHN and in the assay with CAKI-1 was > 100 µM (inactive) in each case.
